Where two headings read alike, the source gives them in different places.

The results in this text go back to patent EP0210284B1, “1,3-Dithiol-2-ylidene derivatives” (priority 1985, dated 1987).

For data set [1], the system named is Acute Liver Injury Induced by Carbon Tetrachloride. The data set can be described thus: Protective effect on acute liver injury induced by carbon tetrachloride. The settings on record: for Liver Damage Index: 50mg/kg orally in olive oil 6 hours before carbon tetrachloride (0.05ml/kg orally), visual score 0: normal, 2: slightly, 4: distinctly, 6: remarkably injured, n=5, CCl4 alone 6.0; for inhibition in vivo at 50 mg/kg: Mus musculus, po, 50mg/kg orally 6 hours before carbon tetrachloride (0.05ml/kg orally), CCl4 alone 0, Normal 100. Format: in vivo, mice (ddY mice). Here is the method:
A test compound was dissolved or suspended in olive oil and administered orally at a dose of 50mg/kg to mice (ddY mice, ? , 23 ± 2g, n=5). After 6 hours, carbon tetrachloride (0.05ml/kg) was administered orally. 24 Hours after the administration of carbon tetrachloride, BSP (sodium sulfobromophthalene; 75mg/kg) was administered intravenously. Thirty minutes later, the cardiac blood was collected, and GPT (glutamic-pyruvic transaminase) activity and the retention rate of BSP in the plasma were measured. Further, the liver injury immediately after the collection of the blood was visually observed and evaluated by the following score for liver damage index. 0: normal 2: Slightly injured 4: distinctly injured 6: remarkably injured

The subject of data set [2] is Acute Liver Injury Induced by D-Galactosamine. The data set can be described thus: Protective effect on acute liver injury induced by D-galactosamine. The data set is classed as in vivo, rats (SD strain). The conditions noted are these: 50mg/kg orally twice daily for 6 days, D-galactosamine 200mg/kg x 3 i.p.; for Glucose / P-GPT: plasma 48 hours after first injection; for Glucose: D-Galactosamine alone 32±4, Normal 142±4; for P-GPT: D-Galactosamine alone 4825±590, Normal 29±2; for ALP: alkaline phosphatase in plasma, D-Galactosamine alone 176±6, Normal 500±63. Here is the method:
A test compound was dissolved or suspended in olive oil and orally administered twice daily for 6 days at a dose of 50mg/kg to rats (SD strain, ? , 225 ±15g, 7 weeks-old, n=5). On the 6th day, D-galactosamine (200mg/kg x 3) was intraperitoneally administered three times at 3-hour intervals. 48 Hours after the first injection of D-galactosamine, the animals were sacrificed by exsanguination from the abdominal aorta. The protective effect was evaluated by examining the biochemical parameters (p-GPT, glucose, alkaline phosphatase) in plasma.

Data set [3] has as its system Fatty Liver Induced by Carbon Tetrachloride. The data set can be described thus: Therapeutic effect on fatty liver induced by carbon tetrachloride. Format: in vivo, rats (SD strain). The arrangement: Apoprotein: unit not given here. How it is done: Carbon tetrachloride (1ml/kg) was subcutaneously administered to rats (SD strain, ? , 38 week-old, n=5) for 4 days. Upon expiration of 3 days from the administration of carbon tetrachloride, Compound 6 was orally given successively for 7 days at the dose of 50mg/kg. On the 8th day, the animals were sacrificed by exsanguination. The therapeutic effect was evaluated by examining the content of triglyceride in the liver and the concentration of apoprotein B in the plasma. […]

In data set [4] the test system is Protein Synthesis in Liver. The data set can be described thus: Effect on protein synthesis in liver. Format: in vivo, rats (Wister strain). The conditions noted are these: 100mg/kg orally for 3 days. Here is the method: Compound 6 was dissolved in olive oil and orally administered successively for 3 days at a dose of 100mg/kg to rats (Wister strain, ? , 180±10g, 6 week-old, n=5). 24 Hours after the administration of the test compound was completed, the animals were sacrificed. The effect on the protein synthesis in the liver was evaluated by determining the liver weight and protein content.

The next data set concerns mice (ddY mice). The data set can be described thus: Acute toxicity test. The conditions noted are these: oral in olive oil, mortality one week after the administration, n=5. The data set is classed as in vivo. Here is the method:
A test compound was dissolved or suspended in olive oil and administered orally to mice (ddY mice, ? , 23±2g, n=5). The acute toxicity value (LD₅₀) was determined from the mortality one week after the administration.

Where [5] appears, read: 24.5 h, retention rate of BSP in plasma 30 minutes after BSP 75mg/kg i.v., read-out: % Prophylaxis BSP.
[6] abbreviates: plasma GPT about 24.5 hours after CCl4, read-out: % Prophylaxis p-GPT.

For `CC(=O)C(C(=O)c1nc2ccccc2[nH]1)=C1SC=CS1` [Compound 47, 2-(1,3-dithiol-2-ylidene)-1-(2-benzimidazolyl)-1,3-butanedione], the “Liver Damage Index” value in data set [1] was 2.4. The inhibition in vivo at 50 mg/kg in data set [1] (setting [5]) came to 103%. Further, in data set [1] (setting [6]), the inhibition in vivo at 50 mg/kg was 91%. In addition, in data set [2], the Glucose stood at 55 ± 2 mg/dL, the P-GPT was determined as 2938±694 U/l and the ALP is on record as 287±25 U/l.

Take `CC(=O)C(C(=O)c1ccccc1)=C1SC=CS1` [Compound 6, 2-(1,3-dithiol-2-ylidene)-1-phenyl-1,3-butanedione]: the “Liver Damage Index” value in data set [1] was 0.4. For the same compound, the inhibition in vivo at 50 mg/kg in data set [1] (setting [5]) turned out to be 103%. Besides, in data set [1] (setting [6]), the inhibition in vivo at 50 mg/kg amounted to 100%. For the same compound, the “effect for curing the fatty liver” value in data set [3] (50mg/kg orally for 7 days, rats with CCl4-induced fatty liver, statement in words) is on record as “significant effect for curing the fatty liver”. In data set [3] (apoprotein B in plasma, carbon tetrachloride 1ml/kg s.c. for 4 days, compound 50mg/kg orally for 7 days, CCl4 alone 66± 2, Normal 125± 8), this compound displayed an Apoprotein of 112± 23. Also, the Triglyceride in data set [3] (carbon tetrachloride 1ml/kg s.c. for 4 days, compound 50mg/kg orally for 7 days, liver content on the 8th day, CCl4 alone 99± 6, Normal 33± 5) amounted to 33± 7 mg/g-liver. Further, in data set [2], the Glucose amounted to 81 ± 9 mg/dL, the P-GPT came out at 908±248 U/l and the ALP worked out at 398±45 U/l. Also, the “Liver Weight” value in data set [4] (24 hours after last administration, Control 6.3±0.1) is on record as 8.6±0.3 g/100g b.w. Besides, the “Liver Protein” value in data set [4] (24 hours after last administration, Control 883±79) came to 1247±62 mg/100g b.w. Besides, the “effect for stimulating the protein metabolic function of the liver” value in data set [4] (statement in words) is listed as “substantial effect for stimulating the protein metabolic function of the liver”. Moreover, the “acute toxicity value (LD50)” value in the data set with mice (ddY mice) is recorded as “at least 2 g”.

For the compound `CC(C)CC(=O)C(C(=O)c1ccccc1)=C1SC=CS1` [Compound 8, 2-(1,3-dithiol-2-ylidene)-5-methyl-1-phenyl-1,3-hexanedione], the “Liver Damage Index” value in data set [1] turned out to be 1.2. Moreover, the inhibition in vivo at 50 mg/kg was determined as 110% in data set [1] (setting [5]) and 100% in data set [1] (setting [6]). Besides, the “acute toxicity value (LD50)” value in the data set on mice (ddY mice) is recorded as “at least 2 g”.

With `CC(=O)C(C(=O)c1ccc(C)cc1)=C1SC=CS1` [Compound 12, 2-(1,3-dithiol-2-ylidene)-1-(4-methylphenyl)-1,3-butanedione], the “Liver Damage Index” value in data set [1] amounted to 0.6. Moreover, the inhibition in vivo at 50 mg/kg in data set [1] (setting [5]) was 114%; in data set [1] (setting [6]), 100%. The “acute toxicity value (LD50)” value in the data set on mice (ddY mice) is on record as “at least 2 g”.

Take `COc1ccc(C(=O)C(C(C)=O)=C2SC=CS2)cc1` [Compound 17, 2-(1,3-dithiol-2-ylidene)-1-(4-methoxyphenyl)-1,3-butanedione]: the “Liver Damage Index” value in data set [1] is reported as 0. The inhibition in vivo at 50 mg/kg in data set [1] (setting [5]) and in data set [1] (setting [6]) was 100% throughout. Also, the “acute toxicity value (LD50)” value with mice (ddY mice) is “at least 2 g”.
